Results reported in BigSolDB 2.1.

C=CC(=O)NC(C)(C)CC(C)=O
Details | solubility (mole fraction)
in 2-butanone, 272.05 K | 0.229
in 2-butanone, 278.25 K | 0.276
in 2-butanone, 283.25 K | 0.321
in 2-butanone, 288.45 K | 0.373
in 2-butanone, 293.35 K | 0.424
in 2-butanone, 298.15 K | 0.484
in 2-butanone, 303.25 K | 0.551
in 2-butanone, 308.15 K | 0.623
in 2-butanone, 313.15 K | 0.704
in 2-butanone, 318.15 K | 0.79
in 2-butanone, 323.15 K | 0.88
in 2-pentanone, 272.05 K | 0.2
in 2-pentanone, 278.25 K | 0.245
in 2-pentanone, 283.25 K | 0.285
in 2-pentanone, 288.45 K | 0.334
in 2-pentanone, 293.35 K | 0.385
in 2-pentanone, 298.15 K | 0.442
in 2-pentanone, 303.25 K | 0.509
in 2-pentanone, 308.15 K | 0.581
in 2-pentanone, 313.15 K | 0.658
in 2-pentanone, 318.15 K | 0.747
in 2-pentanone, 323.15 K | 0.844
in acetone, 272.05 K | 0.207
in acetone, 278.25 K | 0.252
in acetone, 283.25 K | 0.294
in acetone, 288.45 K | 0.342
in acetone, 293.35 K | 0.394
in acetone, 298.15 K | 0.45
in acetone, 303.25 K | 0.515
in acetone, 308.15 K | 0.584
in acetone, 313.15 K | 0.66
in acetone, 318.15 K | 0.746
in acetone, 323.15 K | 0.839
in ethanol, 272.15 K | 0.186
in ethanol, 278.25 K | 0.231
in ethanol, 283.15 K | 0.271
in ethanol, 288.15 K | 0.318
in ethanol, 293.35 K | 0.374
in ethanol, 297.65 K | 0.427
in ethanol, 303.15 K | 0.5
in ethanol, 308.15 K | 0.576
in ethanol, 313.65 K | 0.671
in ethanol, 318.85 K | 0.767
in ethanol, 323.65 K | 0.867
in ethyl acetate, 272.05 K | 0.166
in ethyl acetate, 278.25 K | 0.208
in ethyl acetate, 283.25 K | 0.249
in ethyl acetate, 288.45 K | 0.299
in ethyl acetate, 293.35 K | 0.351
in ethyl acetate, 298.15 K | 0.411
in ethyl acetate, 303.25 K | 0.481
in ethyl acetate, 308.15 K | 0.558
in ethyl acetate, 313.15 K | 0.645
in ethyl acetate, 318.15 K | 0.745
in ethyl acetate, 323.15 K | 0.85
in ethyl formate, 272.05 K | 0.186
in ethyl formate, 278.25 K | 0.23
in ethyl formate, 283.25 K | 0.271
in ethyl formate, 288.45 K | 0.321
in ethyl formate, 293.35 K | 0.376
in ethyl formate, 298.15 K | 0.435
in ethyl formate, 303.25 K | 0.506
in ethyl formate, 308.15 K | 0.575
in ethyl formate, 313.15 K | 0.659
in ethyl formate, 318.15 K | 0.754
in ethyl formate, 323.15 K | 0.859
in isobutanol, 272.05 K | 0.212
in isobutanol, 278.25 K | 0.258
in isobutanol, 283.25 K | 0.301
in isobutanol, 288.45 K | 0.351
in isobutanol, 293.35 K | 0.403
in isobutanol, 298.15 K | 0.462
in isobutanol, 303.25 K | 0.529
in isobutanol, 308.15 K | 0.601
in isobutanol, 313.15 K | 0.68
in isobutanol, 318.15 K | 0.767
in isobutanol, 323.15 K | 0.866
in isopentanol, 272.15 K | 0.154
in isopentanol, 278.25 K | 0.197
in isopentanol, 283.15 K | 0.24
in isopentanol, 288.15 K | 0.29
in isopentanol, 293.35 K | 0.352
in isopentanol, 297.65 K | 0.411
in isopentanol, 303.15 K | 0.495
in isopentanol, 308.15 K | 0.585
in isopentanol, 313.65 K | 0.7
in isopentanol, 318.85 K | 0.82
in isopentanol, 323.65 K | 0.955
in isopropanol, 272.15 K | 0.155
in isopropanol, 278.25 K | 0.197
in isopropanol, 283.15 K | 0.238
in isopropanol, 288.15 K | 0.286
in isopropanol, 293.35 K | 0.343
in isopropanol, 297.65 K | 0.398
in isopropanol, 303.15 K | 0.479
in isopropanol, 308.15 K | 0.562
in isopropanol, 313.65 K | 0.667
in isopropanol, 318.85 K | 0.777
in isopropanol, 323.65 K | 0.898
in methanol, 272.15 K | 0.241
in methanol, 278.25 K | 0.287
in methanol, 283.15 K | 0.327
in methanol, 288.15 K | 0.371
in methanol, 293.35 K | 0.422
in methanol, 297.65 K | 0.468
in methanol, 303.15 K | 0.531
in methanol, 308.15 K | 0.594
in methanol, 313.65 K | 0.667
in methanol, 318.85 K | 0.746
in methanol, 323.65 K | 0.823
in methyl acetate, 272.05 K | 0.206
in methyl acetate, 278.25 K | 0.253
in methyl acetate, 283.25 K | 0.294
in methyl acetate, 288.45 K | 0.343
in methyl acetate, 293.35 K | 0.399
in methyl acetate, 298.15 K | 0.455
in methyl acetate, 303.25 K | 0.526
in methyl acetate, 308.15 K | 0.6
in methyl acetate, 313.15 K | 0.68
in methyl acetate, 318.15 K | 0.769
in methyl acetate, 323.15 K | 0.869
in n-butanol, 272.15 K | 0.169
in n-butanol, 278.25 K | 0.213
in n-butanol, 283.15 K | 0.253
in n-butanol, 288.15 K | 0.303
in n-butanol, 293.35 K | 0.362
in n-butanol, 297.65 K | 0.417
in n-butanol, 303.15 K | 0.496
in n-butanol, 308.15 K | 0.579
in n-butanol, 313.65 K | 0.681
in n-butanol, 318.85 K | 0.793
in n-butanol, 323.65 K | 0.908
in n-hexanol, 272.15 K | 0.151
in n-hexanol, 278.25 K | 0.194
in n-hexanol, 283.15 K | 0.236
in n-hexanol, 288.15 K | 0.286
in n-hexanol, 293.35 K | 0.346
in n-hexanol, 297.65 K | 0.406
in n-hexanol, 303.15 K | 0.491
in n-hexanol, 308.15 K | 0.581
in n-hexanol, 313.65 K | 0.696
in n-hexanol, 318.85 K | 0.82
in n-hexanol, 323.65 K | 0.953
in n-pentanol, 272.15 K | 0.148
in n-pentanol, 278.25 K | 0.189
in n-pentanol, 283.15 K | 0.229
in n-pentanol, 288.15 K | 0.276
in n-pentanol, 293.35 K | 0.336
in n-pentanol, 297.65 K | 0.391
in n-pentanol, 303.15 K | 0.469
in n-pentanol, 308.15 K | 0.553
in n-pentanol, 313.65 K | 0.66
in n-pentanol, 318.85 K | 0.775
in n-pentanol, 323.65 K | 0.896
in n-propanol, 272.15 K | 0.18
in n-propanol, 278.25 K | 0.226
in n-propanol, 283.15 K | 0.269
in n-propanol, 288.15 K | 0.32
in n-propanol, 293.35 K | 0.381
in n-propanol, 297.65 K | 0.437
in n-propanol, 303.15 K | 0.52
in n-propanol, 308.15 K | 0.605
in n-propanol, 313.65 K | 0.71
in n-propanol, 318.85 K | 0.819
in n-propanol, 323.65 K | 0.937
